Assays:
[1] = target: Epidermal growth factor receptor (Homo sapiens, UniProt P00533)
[2] = test system: HN5; assay: Antiproliferative activity against human HN5 cell line
[3] = test system: HFF; assay: Antiproliferative activity against human HFF cell line
[4] = test system: BT-474; assay: Antiproliferative activity against human BT474 cell line
[5] = target: Receptor tyrosine-protein kinase erbB-2 (Homo sapiens, UniProt P04626); assay: Inhibition of ErbB2
[6] = Permeability in PAMPA; format: ADME; settings: read-out: permeability

Chain of Epidermal growth factor receptor (P00533 whole entry): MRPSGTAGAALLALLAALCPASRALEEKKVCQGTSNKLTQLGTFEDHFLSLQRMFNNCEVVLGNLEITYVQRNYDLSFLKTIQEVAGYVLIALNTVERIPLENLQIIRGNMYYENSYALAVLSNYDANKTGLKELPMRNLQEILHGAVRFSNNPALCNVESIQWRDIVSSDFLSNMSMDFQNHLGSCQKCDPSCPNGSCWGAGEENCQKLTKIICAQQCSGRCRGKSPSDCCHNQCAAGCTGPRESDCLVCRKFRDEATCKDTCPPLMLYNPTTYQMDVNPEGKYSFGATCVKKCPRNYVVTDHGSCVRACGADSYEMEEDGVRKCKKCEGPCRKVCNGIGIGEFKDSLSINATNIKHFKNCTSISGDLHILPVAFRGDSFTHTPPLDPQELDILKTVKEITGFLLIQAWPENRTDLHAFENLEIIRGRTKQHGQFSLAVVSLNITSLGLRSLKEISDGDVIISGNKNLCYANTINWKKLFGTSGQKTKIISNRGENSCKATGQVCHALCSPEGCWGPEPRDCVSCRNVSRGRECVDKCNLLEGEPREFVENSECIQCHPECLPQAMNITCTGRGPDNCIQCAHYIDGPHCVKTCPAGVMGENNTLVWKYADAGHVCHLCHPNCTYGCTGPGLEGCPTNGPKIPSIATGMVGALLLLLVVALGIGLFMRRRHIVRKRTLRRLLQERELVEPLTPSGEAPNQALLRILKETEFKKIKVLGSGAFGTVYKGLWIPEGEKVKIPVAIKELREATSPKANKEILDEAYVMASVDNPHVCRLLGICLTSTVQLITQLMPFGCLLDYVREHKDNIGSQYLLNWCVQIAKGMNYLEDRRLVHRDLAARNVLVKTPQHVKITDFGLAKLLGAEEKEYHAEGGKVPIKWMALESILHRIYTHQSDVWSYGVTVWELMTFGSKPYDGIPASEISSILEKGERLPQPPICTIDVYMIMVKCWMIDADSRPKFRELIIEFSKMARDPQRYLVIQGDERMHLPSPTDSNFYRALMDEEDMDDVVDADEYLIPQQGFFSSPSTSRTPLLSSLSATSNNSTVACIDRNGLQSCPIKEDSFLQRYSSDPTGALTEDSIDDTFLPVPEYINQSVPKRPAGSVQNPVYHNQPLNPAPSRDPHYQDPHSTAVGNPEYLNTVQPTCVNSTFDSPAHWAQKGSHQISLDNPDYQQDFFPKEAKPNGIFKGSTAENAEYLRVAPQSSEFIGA
Chain of Receptor tyrosine-protein kinase erbB-2 (P04626 whole entry): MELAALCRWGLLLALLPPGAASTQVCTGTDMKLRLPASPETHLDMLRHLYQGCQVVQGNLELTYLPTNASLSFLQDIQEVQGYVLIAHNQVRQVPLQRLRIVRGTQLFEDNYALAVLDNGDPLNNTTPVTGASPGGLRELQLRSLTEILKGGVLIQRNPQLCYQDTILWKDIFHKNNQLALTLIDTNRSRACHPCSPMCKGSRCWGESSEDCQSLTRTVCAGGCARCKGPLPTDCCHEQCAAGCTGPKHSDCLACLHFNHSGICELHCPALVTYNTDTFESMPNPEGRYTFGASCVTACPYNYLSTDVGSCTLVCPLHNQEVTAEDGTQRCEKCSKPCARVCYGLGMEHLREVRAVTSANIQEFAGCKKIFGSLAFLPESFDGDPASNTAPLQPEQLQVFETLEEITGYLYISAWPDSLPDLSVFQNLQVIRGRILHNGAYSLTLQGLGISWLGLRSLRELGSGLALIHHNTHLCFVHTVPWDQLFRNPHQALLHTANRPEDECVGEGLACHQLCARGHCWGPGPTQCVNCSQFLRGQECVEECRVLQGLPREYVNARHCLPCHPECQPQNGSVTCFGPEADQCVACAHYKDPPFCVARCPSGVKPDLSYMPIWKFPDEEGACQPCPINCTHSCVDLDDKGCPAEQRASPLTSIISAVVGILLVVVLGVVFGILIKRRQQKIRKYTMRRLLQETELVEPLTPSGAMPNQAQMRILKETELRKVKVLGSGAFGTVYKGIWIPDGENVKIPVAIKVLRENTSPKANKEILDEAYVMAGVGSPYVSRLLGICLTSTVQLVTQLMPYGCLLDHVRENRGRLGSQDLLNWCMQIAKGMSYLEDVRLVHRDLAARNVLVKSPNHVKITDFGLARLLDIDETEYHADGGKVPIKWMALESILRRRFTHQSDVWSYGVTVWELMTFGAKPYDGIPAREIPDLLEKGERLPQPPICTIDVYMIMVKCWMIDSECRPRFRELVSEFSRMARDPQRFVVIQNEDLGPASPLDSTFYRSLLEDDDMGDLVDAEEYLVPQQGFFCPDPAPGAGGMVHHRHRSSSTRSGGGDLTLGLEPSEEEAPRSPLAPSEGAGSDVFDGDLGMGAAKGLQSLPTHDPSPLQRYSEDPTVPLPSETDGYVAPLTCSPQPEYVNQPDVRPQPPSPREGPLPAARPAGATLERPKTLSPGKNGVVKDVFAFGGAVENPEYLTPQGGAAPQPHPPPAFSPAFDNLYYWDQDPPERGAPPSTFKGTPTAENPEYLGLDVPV

Row | SMILES | IC50 [1] [nM] | IC50 [4] [µM] | IC50 [5] [nM] | Papp [6] [×10⁻⁶ cm/s] | IC50 [2] [nM] | IC50 [3] [µM]
1 | C#Cc1cncnc1Nc1ccc(OCc2cccc(F)c2)c(Cl)c1 | 85 | – | 3800 | – | – | –
2 | Fc1cccc(COc2ccc(Nc3ncncc3C#Cc3ccccc3)cc2Cl)c1 [GW651576X] | 79 | – | 780 | – | – | –
3 | Fc1cccc(COc2ccc(Nc3ncncc3C#Cc3cc[nH]n3)cc2Cl)c1 | 42 | – | 66 | – | – | –
4 | COC(=O)CCCC(=O)Nc1cccc(C#Cc2cncnc2Nc2ccc(OCc3cccc(F)c3)c(Cl)c2)c1 | 31 | 4.24 | 29 | – | 3470 | 22.4
5 | CS(=O)(=O)CCNC(=O)NCc1cccc(C#Cc2cncnc2Nc2ccc(OCc3cccc(F)c3)c(Cl)c2)n1 | 15 | 0.84 | 9 | – | 770 | > 30
6 | Fc1cccc(COc2ccc(Nc3ncncc3C#Cc3ccccn3)cc2Cl)c1 | 17 | – | 55 | – | – | –
7 | Fc1cccc(COc2ccc(Nc3ccncn3)cc2Cl)c1 | 320 | – | 21000 | – | – | –
8 | CC(=O)Nc1cccc(C#Cc2cncnc2Nc2ccc(OCc3cccc(F)c3)c(Cl)c2)c1 [GW703087X] | 12 | 21.6 | 13 | < 0.3 | 13700 | > 30
9 | CS(=O)(=O)Nc1cccc(C#Cc2cncnc2Nc2ccc(OCc3cccc(F)c3)c(Cl)c2)c1 | 110 | – | 45 | – | – | –
10 | CC(=O)Nc1cccc(C#Cc2cncnc2Nc2ccc(OCc3cccc(F)c3)c(Cl)c2)n1 [GW794726X] | 91 | – | 59 | – | – | –
11 | CC(=O)NCc1cccc(C#Cc2cncnc2Nc2ccc(OCc3cccc(F)c3)c(Cl)c2)c1 [GW807930X] | 60 | – | 52 | – | – | –
12 | Nc1nccc(C#Cc2cncnc2Nc2ccc(OCc3cccc(F)c3)c(Cl)c2)n1 [GW799251X] | – | – | 12 | – | – | –
13 | OCc1nc(C#Cc2cncnc2Nc2ccc(OCc3cccc(F)c3)c(Cl)c2)cs1 | 76 | – | 160 | – | – | –
14 | CS(=O)(=O)CCC(=O)Nc1cccc(C#Cc2cncnc2Nc2ccc(OCc3cccc(F)c3)c(Cl)c2)c1 | 50 | – | 32 | – | – | –

Continued, in another order:

Row | IC50 [1] [nM] | IC50 [4] [µM] | IC50 [5] [nM] | Papp [6] [×10⁻⁶ cm/s] | SMILES | IC50 [2] [nM] | IC50 [3] [µM]
15 | 33 | 2.04 | 47 | – | OCc1ccc(C#Cc2cncnc2Nc2ccc(OCc3cccc(F)c3)c(Cl)c2)o1 | 930 | 15.8
16 | 77 | – | 60 | – | Fc1cccc(COc2ccc(Nc3ncncc3C#Cc3ncccn3)cc2Cl)c1 | – | –
17 | 23 | – | 69 | – | CNC(=O)NCc1cccc(C#Cc2cncnc2Nc2ccc(OCc3cccc(F)c3)c(Cl)c2)n1 | – | –
18 | 21 | – | 38 | – | NCc1cccc(C#Cc2cncnc2Nc2ccc(OCc3cccc(F)c3)c(Cl)c2)n1 | – | –
19 | 42 | – | 44 | – | Nc1cccc(C#Cc2cncnc2Nc2ccc(OCc3cccc(F)c3)c(Cl)c2)c1 | – | –
20 | – | 5.79 | 13 | – | OCc1cccc(C#Cc2cncnc2Nc2ccc(OCc3cccc(F)c3)c(Cl)c2)n1 | – | > 30
21 | 79 | – | 32 | – | CNC(=O)c1cccc(C#Cc2cncnc2Nc2ccc(OCc3cccc(F)c3)c(Cl)c2)c1 [GW772405X] | – | –
22 | 74 | – | 140 | – | Fc1cccc(COc2ccc(Nc3ncncc3C#Cc3cccnc3)cc2Cl)c1 | – | –
23 | 25100 | – | 1820 | – | CC(=O)Nc1ccc(C#Cc2cncnc2Nc2ccc(OCc3cccc(F)c3)c(Cl)c2)cc1 | – | –
24 | 63 | – | 91 | – | Nc1ccccc1C#Cc1cncnc1Nc1ccc(OCc2cccc(F)c2)c(Cl)c1 | – | –
25 | 30 | – | 36 | – | Nc1ccc(C#Cc2cncnc2Nc2ccc(OCc3cccc(F)c3)c(Cl)c2)cc1 [GW659893X] | – | –

From ChEMBL document CHEMBL1147004, “Alkynyl pyrimidines as dual EGFR/ErbB2 kinase inhibitors” (Bioorg Med Chem Lett, 2006)
